According to patent publication US20210009564A1, “CALPAIN MODULATORS AND THERAPEUTIC USES THEREOF” (BLADE THERAPERTICS, INC., priority 2018, published 2021):
Structures can show the parent of a compound that is named as a salt.

Key:
[1] = molecular target: T1, Human Calpain 1/NS1 (Homo sapiens, UniProt P07384); experiment: Calpain inhibition, continuous fluorescence (FRET substrate) assay, calpain 1; assay type: biochemical; conditions: SensoLyte 520 FRET substrate, 25C
T1 sequence (P07384 1-714): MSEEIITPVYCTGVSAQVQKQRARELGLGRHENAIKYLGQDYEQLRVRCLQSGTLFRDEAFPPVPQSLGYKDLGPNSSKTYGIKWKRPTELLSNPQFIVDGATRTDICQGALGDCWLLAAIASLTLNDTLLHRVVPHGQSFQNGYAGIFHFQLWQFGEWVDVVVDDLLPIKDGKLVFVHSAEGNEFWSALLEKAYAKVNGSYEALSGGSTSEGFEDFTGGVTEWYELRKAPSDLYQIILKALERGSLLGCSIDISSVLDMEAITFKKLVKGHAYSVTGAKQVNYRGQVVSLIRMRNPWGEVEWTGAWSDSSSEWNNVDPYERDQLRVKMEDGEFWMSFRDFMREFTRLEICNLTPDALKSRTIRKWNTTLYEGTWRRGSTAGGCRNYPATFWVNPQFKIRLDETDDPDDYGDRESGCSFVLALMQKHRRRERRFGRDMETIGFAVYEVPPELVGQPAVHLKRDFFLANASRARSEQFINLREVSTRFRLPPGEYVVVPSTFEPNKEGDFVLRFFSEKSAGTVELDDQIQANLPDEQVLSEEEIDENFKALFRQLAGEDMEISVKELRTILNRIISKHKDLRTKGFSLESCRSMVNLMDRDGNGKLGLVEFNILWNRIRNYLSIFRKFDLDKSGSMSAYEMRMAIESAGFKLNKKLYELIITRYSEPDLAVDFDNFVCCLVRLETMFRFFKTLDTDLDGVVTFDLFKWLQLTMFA
T1 sequence (P04632 1-268 partner): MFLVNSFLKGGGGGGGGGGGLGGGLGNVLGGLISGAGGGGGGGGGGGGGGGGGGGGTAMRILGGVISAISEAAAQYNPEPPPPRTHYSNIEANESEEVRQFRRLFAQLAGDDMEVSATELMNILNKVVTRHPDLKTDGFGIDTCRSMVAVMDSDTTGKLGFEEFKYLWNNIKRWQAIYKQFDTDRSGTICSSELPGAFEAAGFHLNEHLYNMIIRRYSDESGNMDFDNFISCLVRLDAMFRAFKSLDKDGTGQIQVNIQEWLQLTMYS
Description: (§1) Calpain 1, 2, and 9 activity and inhibition thereof was assessed by means of a continuous fluorescence assay. The SensoLyte 520 Calpain substrate (Anaspec Inc) was optimized for detecting calpain activity. This substrate contains an internally quenched 5-FAM/QXLTM 520 FRET pair. Calpains 1, 2, and 9 cleave the FRET substrate into two separate fragments resulting in an increase of 5-FAM fluorescence that is proportional to calpain activity Assays were typically setup in black 384-well plates using automated liquid handling as follows. Calpain assay base buffer typically contains 50 mM Tris, pH 7.5, 100 mM NaCl and 1 mM DTT. Inhibitors were serially diluted in DMSO and used to setup 2× mixtures with calpains in the aforementioned buffer. After incubation at ambient temperature (25C), the reaction was initiated by adding a 2× mix of the fluorescent peptide substrate and CaCl2) (required for in-situ calpain activation) in the same buffer. Reaction progress curve data were typically collected for 10 min using excitation/emission wavelengths of 490 nm/520 nm on SpectraMax i3× or the FLIPR-Tetra plate readers (Molecular Devices Inc). Reaction rates were calculated from progress curve slopes typically over 1-5 min. Dose response curves (rate vs. log inhibitor concentration) were typically fit to a 4-parameter logistic function to extract IC50 values.

[2] = system: Calpain activity in SH-SY5Y cells; experiment: SH-SY5Y Suc-LLVY-AMC fluorescence assay; assay type: cell-based; conditions: Homo sapiens; SH-SY5Y cells, 100 uM Suc-LLVY-AMC; read-out: SH-SY5Y + AMC IC50
[3] = molecular target: T2, Human Calpain 9/NS1 (Homo sapiens, UniProt O14815); experiment: Calpain inhibition, continuous fluorescence (FRET substrate) assay, calpain 9; assay type: biochemical; conditions: SensoLyte 520 FRET substrate, 25C
T2 sequence (O14815 1-690): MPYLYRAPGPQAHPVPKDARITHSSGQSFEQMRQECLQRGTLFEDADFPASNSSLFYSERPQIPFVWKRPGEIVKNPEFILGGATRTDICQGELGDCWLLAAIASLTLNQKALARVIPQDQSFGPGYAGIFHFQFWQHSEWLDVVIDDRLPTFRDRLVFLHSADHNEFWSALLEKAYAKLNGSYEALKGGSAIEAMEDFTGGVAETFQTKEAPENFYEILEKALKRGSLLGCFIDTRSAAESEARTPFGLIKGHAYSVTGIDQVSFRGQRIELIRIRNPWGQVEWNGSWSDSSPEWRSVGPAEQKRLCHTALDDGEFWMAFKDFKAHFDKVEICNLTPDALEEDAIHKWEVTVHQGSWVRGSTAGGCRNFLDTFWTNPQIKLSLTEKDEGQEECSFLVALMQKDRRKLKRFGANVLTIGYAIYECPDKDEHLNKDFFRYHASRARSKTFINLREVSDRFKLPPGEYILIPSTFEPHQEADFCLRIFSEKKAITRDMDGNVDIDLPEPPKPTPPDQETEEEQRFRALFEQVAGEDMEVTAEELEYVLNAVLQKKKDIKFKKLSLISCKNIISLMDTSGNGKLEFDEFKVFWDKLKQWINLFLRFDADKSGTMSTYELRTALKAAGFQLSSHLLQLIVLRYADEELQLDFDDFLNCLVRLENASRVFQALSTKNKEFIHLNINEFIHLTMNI
T2 sequence (P04632 1-268 partner): T1 sequence (P04632 1-268 partner)
Description: as §1

[4] = molecular target: T3, Human Calpain 2/NS1 (Homo sapiens, UniProt P17655); experiment: Calpain inhibition, continuous fluorescence (FRET substrate) assay, calpain 2; assay type: biochemical; conditions: SensoLyte 520 FRET substrate, 25C
T3 sequence (P17655 1-700): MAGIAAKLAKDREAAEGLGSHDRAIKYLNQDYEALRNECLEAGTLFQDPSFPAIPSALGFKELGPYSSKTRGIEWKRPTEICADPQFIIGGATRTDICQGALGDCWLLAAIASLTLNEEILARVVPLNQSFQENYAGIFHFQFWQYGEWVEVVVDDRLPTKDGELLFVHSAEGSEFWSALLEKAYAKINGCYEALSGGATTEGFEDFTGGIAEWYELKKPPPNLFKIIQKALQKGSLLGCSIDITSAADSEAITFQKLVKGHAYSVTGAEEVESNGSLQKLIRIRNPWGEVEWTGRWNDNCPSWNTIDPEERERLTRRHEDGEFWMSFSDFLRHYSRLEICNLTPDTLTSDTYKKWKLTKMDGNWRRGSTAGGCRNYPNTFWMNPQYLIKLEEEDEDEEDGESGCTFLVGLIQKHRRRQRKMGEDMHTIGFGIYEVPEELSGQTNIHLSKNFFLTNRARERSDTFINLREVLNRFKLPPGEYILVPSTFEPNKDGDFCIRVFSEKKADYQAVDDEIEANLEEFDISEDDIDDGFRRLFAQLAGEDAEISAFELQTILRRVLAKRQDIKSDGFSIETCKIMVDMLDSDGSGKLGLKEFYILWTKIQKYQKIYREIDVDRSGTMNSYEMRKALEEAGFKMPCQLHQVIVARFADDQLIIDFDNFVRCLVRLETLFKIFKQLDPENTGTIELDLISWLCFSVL
T3 sequence (P04632 1-268 partner): T1 sequence (P04632 1-268 partner)
Description: as §1

[5] = system: Calpain activity in SH-SY5Y cells; experiment: SH-SY5Y spectrin breakdown product (SBDP-150) western blot assay; assay type: cell-based; conditions: Homo sapiens; SH-SY5Y cells, 25 uM A23187, SBDP-150 western blot; read-out: SH-SY5Y Spectrin IC50

| SMILES | IC50 [1] [µM] | IC50 [2] [µM] | IC50 [3] [µM] | IC50 [4] [µM] | IC50 [5] [µM] |
| --- | --- | --- | --- | --- | --- |
| Cn1cc(C(=O)NC(Cc2ccccc2)C(=O)C(N)=O)c(-c2ccc3cccnc3c2)n1 (centres unmarked) [Compound 1, N-(4-AMINO-3,4-DIOXO-1-PHENYLBUTAN-2-YL)-1-METHYL-3-(QUINOLIN-7-YL)-1H-PYRAZOLE-4-CARBOXAMIDE] | < 3 | > 25 | < 3 | < 3 | > 25 |
| Cn1cc(C(=O)NC(Cc2ccccc2)C(=O)C(N)=O)c(N2CCNCC2)n1 (centres unmarked) [Compound 2, N-(4-AMINO-3,4-DIOXO-1-PHENYLBUTAN-2-YL)-1-METHYL-3-(PIPERAZIN-1-YL)-1H-PYRAZOLE-4-CARBOXAMIDE HYDROCHLORIDE] | > 10 | 10 to 25 | > 10 | 3 to 10 | > 25 |
| NC(=O)C(=O)C(Cc1ccccc1)NC(=O)c1nsnc1-c1ccc(F)cc1 (centres unmarked) [Compound 3, N-(4-AMINO-3,4-DIOXO-1-PHENYLBUTAN-2-YL)-4-(4-FLUOROPHENYL)-1,2,5-THIADIAZOLE-3-CARBOXAMIDE] | < 3 | < 10 | < 3 | < 3 | 10 to 25 |
| NC(=O)C(=O)C(Cc1ccccc1)NC(=O)c1cn(C(F)F)nc1-c1nccc2ccccc12 (centres unmarked) [Compound 4, N-(4-AMINO-3,4-DIOXO-1-PHENYLBUTAN-2-YL)-1-(DIFLUOROMETHYL)-3-(ISOQUINOLIN-1-YL)-1H-PYRAZOLE-4-CARBOXAMIDE] | < 3 | < 10 | < 3 | < 3 | > 25 |
| NC(=O)C(=O)C(Cc1ccccc1)NC(=O)c1cnoc1-c1cccc2c1OCO2 (centres unmarked) [Compound 5, N-(4-AMINO-3,4-DIOXO-1-PHENYLBUTAN-2-YL)-5-(BENZO[d][1,3]DIOXOL-4-YL)ISOXAZOLE-4-CARBOXAMIDE] | < 3 | < 10 | < 3 | < 3 | 10 to 25 |
| Cn1cc(C(=O)NC(Cc2ccccc2)C(=O)C(N)=O)c(-c2cccc3ncsc23)n1 (centres unmarked) [Compound 6, N-(4-AMINO-3,4-DIOXO-1-PHENYLBUTAN-2-YL)-3-(BENZO[D]THIAZOL-7-YL)-1-METHYL-1H-PYRAZOLE-4-CARBOXAMIDE] | < 3 | < 10 | < 3 | < 3 | < 10 |
| NC(=O)C(=O)C(Cc1ccccc1)NC(=O)c1cn(C(F)F)nc1-c1cccc2ncsc12 (centres unmarked) [Compound 7, N-(4-AMINO-3,4-DIOXO-1-PHENYLBUTAN-2-YL)-3-(BENZO[D]THIAZOL-7-YL)-1-(DIFLUOROMETHYL)-1H-PYRAZOLE-4-CARBOXAMIDE] | < 3 | < 10 | < 3 | < 3 | < 10 |
| NC(=O)C(=O)C(Cc1ccccc1)NC(=O)c1cnoc1-c1cccc2c1OC(F)(F)O2 (centres unmarked) [Compound 8, N-(4-AMINO-3,4-DIOXO-1-PHENYLBUTAN-2-YL)-5-(2,2-DIFLUOROBENZO[d][1,3]DIOXOL-4-YL)ISOXAZOLE-4-CARBOXAMIDE] | < 3 | > 25 | < 3 | < 3 | 10 to 25 |
| Cn1cc(C(=O)NC(Cc2ccccc2)C(=O)C(N)=O)c(-n2cnc3ccccc32)n1 (centres unmarked) [Compound 9, N-(4-AMINO-3,4-DIOXO-1-PHENYLBUTAN-2-YL)-3-(1H-BENZO[D]IMIDAZOL-1-YL)-1-METHYL-1H-PYRAZOLE-4-CARBOXAMIDE] | < 3 | > 25 | < 3 | < 3 | 10 to 25 |
| Cc1nc(-c2ccccc2F)c(C(=O)NC(Cc2ccc(F)cc2)C(=O)C(N)=O)o1 (centres unmarked) [Compound 73, N-(4-AMINO-1-(4-FLUOROPHENYL)-3,4-DIOXOBUTAN-2-YL)-4-(2-FLUOROPHENYL)-2-METHYLOXAZOLE-5-CARBOXAMIDE] | < 3 | – | < 3 | < 3 | < 10 |
| COC(=O)C(=O)C(Cc1ccccc1)NC(=O)c1cn(C)nc1-c1cccc(F)c1 (centres unmarked) [Compound 74, METHYL-3-(3-(3-FLUOROPHENYL)-1-METHYL-1H-PYRAZOLE-4-CARBOXAMIDO)-2-OXO-4-PHENYLBUTANOATE] | < 3 | – | < 3 | < 3 | > 25 |
| COc1cccc(-c2nc(C)oc2C(=O)NC(Cc2ccccc2)C(=O)C(N)=O)c1F (centres unmarked) [Compound 75, N-(4-AMINO-3,4-DIOXO-1-PHENYLBUTAN-2-YL)-4-(2-FLUORO-3-METHOXYPHENYL)-2-METHYLOXAZOLE-5-CARBOXAMIDE] | < 3 | – | < 3 | < 3 | 10 to 25 |
| Cc1nc(-c2c(F)cccc2F)c(C(=O)NC(Cc2ccccc2)C(=O)C(N)=O)o1 (centres unmarked) [Compound 76, N-(4-AMINO-3,4-DIOXO-1-PHENYLBUTAN-2-YL)-4-(2,6-DIFLUOROPHENYL)-2-METHYLOXAZOLE-5-CARBOXAMIDE] | < 3 | – | < 3 | < 3 | 10 to 25 |
| Cn1cc2cccc(-c3nn(C(F)F)cc3C(=O)NC(Cc3ccccc3)C(=O)C(N)=O)c2n1 (centres unmarked) [Compound 77, N-(4-AMINO-3,4-DIOXO-1-PHENYLBUTAN-2-YL)-1-(DIFLUOROMETHYL)-3-(2-METHYL-2H-INDAZOL-7-YL)-1H-PYRAZOLE-4-CARBOXAMIDE] | < 3 | – | < 3 | < 3 | 10 to 25 |
